Results reported in patent US20080050355A1, “PROTECTION OF BIOACTIVE FOOD INGREDIENTS BY MEANS OF ENCAPSULATION” (COMPAGNIE GERVAIS DANONE, priority 2004, published 2008).
“Also recorded” adds a separate entry of the source. Like-named read-outs stand apart in the source and are kept apart here. Peptide text beside a SMILES is read from it.

Key:
[1] = Hypertensive rats, after ingestion; Nakamura 1995; cited from earlier work
[2] = Normal rats; Nakamura 1995; cited from earlier work
[3] = Human hypertension (36 patients), after 8 weeks' ingestion of 95 mL/d; Hata 1996; cited from earlier work
[4] = Dog, 10 g/300 mL water by stomach tube; cancelled by naloxone; Defilippi 1986; cited from earlier work
[5] = tested on: ferment YC380 (Chr. Hansen); test: Fermentation of milk mix containing hydrolysate up to pH 4.7, residual peptides by HPLC-MS/MS; format: physicochemical
Experimental: FIG. 3: Compared peptide profiles (LC-MS/MS chromatograms) of a milk “mix” containing 1.5 g/L DMV C12® hydrolysate before (1) and after (2) fermentation up to pH 4.7 by the lacetic ferment Hansen YC380. Almost all the peptides of the hydrolysate, including the bioactive C12 peptide (fragment αS1[23-34] disappeared after metabolisation by the ferment strains.
(§1) Protocol: the medium was prepared by hydrating a skimmed milk powder at 120 g/L, to which 1.5 g/L of Lactium® ingredient is added (corresponding to approximately 30 mg/L αs1 [91-100] bioactive peptide) then pasteurised at 95° C. for 8 minutes.
(§2) The lacetic ferment was added at a percentage of 0.02% and fermentation was conducted at the optimal temperature of the chosen ferment (between 37 and 42° C.) up to a pH of 4.70.
Analysis of the residual peptides, in particular of the bioactive peptide αS1[91-100], was conducted using a HPLC method coupled to a detector of MS/MS type as described below: • the sample was prepared by diluting the fermented medium in a mixture of water, methanol and trifluoroacetic acid (50/50/0.1%) to a ratio of approximately 1 to 6. […] For example the αS1[91-100] peptide was isolated from its mass (double charged ion of mass 634.5 Da) and quantified from the intensity of its characteristic daughter ions after fragmenting (ions with m/z 991.5 Da, 771.5 Da and 658.3 Da). […]

fermented mass = test: Storage of fermented mass with Lactium encapsulated in palm oil emulsion; format: physicochemical
Experimental: FIG. 6: Illustration of the change in content of encapsulated bioactive ingredient over time (storage at 4° C.).
FIG. 7: Compared peptide profiles (LC-MS/MS chromatograms) of a milk mix containing 1.5 g/L Lactium® added in the form of an emulsion in palm oil according to the present invention, immediately after addition to the fermented mass (1) and after 14 days' storage at 10° C. (2).
The oil was melted at 50° C. to obtain total absence of crystals, and the Lactium® containing the bioactive food ingredient αS1(91-100] was gradually added under magnetic stirring (maintained at 50° C.).
A type of syrup was prepared from water and the premix of palm oil/bioactive food ingredient. The bioactive food ingredient was gradually added to the water (30° C.) under Ultraturax stirring (22000 rpm), the palm content of the solution being arbitrarily fixed at […].
The emulsion obtained was easily pumpable at 30° C.-35° C., but became progressively firmer as soon as the temperature fell to below 25° C.-30° C. (progressive recrystallisation of the palm oil). The use of a food emulsifier (e.g. Lactem® supplied by Danisco) to the proportion of 0.5%/fat led to obtaining a population of fatty globules that was less heterogeneous.

[6] = tested on: ferment consisting of a mixture of strains 1-2783, 1-2774, 1-2835 and 1-1968; test: Fermentation of milk mix containing Lactium up to pH 4.70, residual peptides by HPLC-MS/MS; format: physicochemical; details: 1.5 g/L Lactium® added before fermentation
Experimental: as §1, §2
Analysis of the residual peptides, in particular of the bioactive peptide αS1[91-100], was conducted using a HPLC method coupled to a detector of MS/MS type as described below: • the sample was prepared by diluting the fermented medium in a mixture of water, methanol and trifluoroacetic acid (50/50/0.1%) to a ratio of approximately 1 to 6. […] The peptides were eluted in conventional manner against an increasing gradient of solvent B (Acetonitrile+0.100% formic acid) in solvent A (Water+0.106% formic acid) for a time of 40 min to 2 hours in relation to desired resolution. • detection was made using a specific detector of MS/MS type, for example of ion trap type such as the Esquire 3000+(Bruker, Daltonique, rue de l'Industrie 67166 Wissembourg Cedex) adjusted either for global analysis of the peptide content (MS-MS mode) or for precise, specific quantification of a peptide from its characteristic fragments. […]

[7] = tested on: Pure strains (Lactobacillus); test: Fermentation of reconstituted milk with 1.5 g/L Lactium by pure strains; format: physicochemical; details: milk mix containing 1.5 g/L Lactium®, fermentation halted at pH 4.7
Experimental: (§3) Analysis of the residual peptides, in particular of the bioactive peptide αS1[91-100], was conducted using a HPLC method coupled to a detector of MS/MS type as described below: • the sample was prepared by diluting the fermented medium in a mixture of water, methanol and trifluoroacetic acid (50/50/0.1%) to a ratio of approximately 1 to 6. The supernatant after centrifuging formed the sample representing the peptide content of the fermented medium. • this sample was injected into a HPLC chromatography system of Agilent 1100 type (Agilent Technologies France, 1 rue Galvani 91745 Massy Cedex France) equipped with a column adapted for peptide analysis of Waters Symetry® type (5 μm 2.1×150 mm, WAT056975, Waters, France, 5 Rue Jacques Monod, 78280 Guyancourt) at a temperature of 40° C. and flow rate 0.25 ml/min. The peptides were eluted in conventional manner against an increasing gradient of solvent B (Acetonitrile+0.100% formic acid) in solvent A (Water+0.106% formic acid) for a time of 40 min to 2 hours in relation to desired resolution. • detection was made using a specific detector of MS/MS type, for example of ion trap type such as the Esquire 3000+(Bruker, Daltonique, rue de l'Industrie 67166 Wissembourg Cedex) adjusted either for global analysis of the peptide content (MS-MS mode) or for precise, specific quantification of a peptide from its characteristic fragments. For example the αS1[91-100] peptide was isolated from its mass (double charged ion of mass 634.5 Da) and quantified from the intensity of its characteristic daughter ions after fragmenting (ions with m/z 991.5 Da, 771.5 Da and 658.3 Da). In even more precise manner, an internal standard consisting of the same synthetic peptide deuterated twice (characteristic fragment of 993.5 Da) allowed any matrix-related interferences to be overcome and taken into account.
(§4) To verify that this phenomenon is not particular to the two ferments used in paragraph 1.1) above, the main industrial ferments and different pure strains entering into the composition of these ferments, were tested on the same test basis: milk reconstituted from milk powder, to which Lactium® was added at a dose of 1.5 g/L, was fermented under standard conditions (optimal ferment temperature between 37 and 42° C., halting of fermentation at pH 4.7, two repeats). Analysis of the level of αS1[91-100] bioactive peptide was conducted on the sample before and after fermentation.
(§5) In Table 3 above, which reflects consumption of the bioactive peptide aS1[91-100] by different ferments and industrial strains during fermentation of a milk mix containing 1.5 g/L Lactium®, the pure strains were identified by their numbers and respective date of depositing with the CNCM (Institut Pasteur, Paris France).

[8] = tested on: Pure strains (S. thermophilus); test: as above; format: physicochemical; details: milk mix containing 1.5 g/L Lactium®, fermentation halted at pH 4.7
Experimental: as §3, §4, §5

[9] = Storage of fermented then thermised product with peptide added after fermentation; format: physicochemical; details: thermised at 75° C. for 1 minute, stored at 10° C. until BBD (FIG. 5)
Experimental: FIG. 5: Curves illustrating changes in the residual content of αS1[91-100] bioactive peptide added after fermentation, in a product fermented and then thermised at 75° C. for 1 minute and stored at 10° C. until the Best Before Date (BBD).
This solution effectively has numerous drawbacks: • thermisation of a fermented milk mass implies the use of stabilisers added before the heat treatment (pectins, starches, carrageenans, etc.) which complicates the method and substantially increases the cost of the formula; • the industrial production line is more complex and requires specific, higher investment; • the product no longer benefits from quality labels related to products containing living ferments (yoghurt type), and thereby loses the benefits associated with the consumption of lacetic ferments; • the organoleptic impact (generally negative) is significant.

platelet aggregation = details: In vitro; Jollès 1986; cited from earlier work
pathogenic strains = details: In vitro, cited from earlier work
[10] = In vivo animal; Migliore-Samour 1988; cited from earlier work

Val-Pro-Pro [Val-Pro-Pro (VPP)]
blood pressure [1]: ingestion, reduced blood
blood pressure [2]: Normal rats: no effect
blood pressure [3]: reduced blood pressure

Casein
small intestine motility [4]: inhibition of small intestine

αS1[23-34]: bioactive C12 peptide, present in the C12 ingredient by DMV International and in Lactium® (FFVAPFPEVFGK; UniProt P02662 38-49, looked up, fragment)
peptides after fermentation (LC-MS/MS peptide profile) ([5]; milk mix containing 1.5 g/L DMV C12® hydrolysate, fermentation up to pH 4.7 (FIG. 3)): disappeared
protection of peptide (LC-MS/MS peptide profile) (fermented mass; 1.5 g/L Lactium® as emulsion in palm oil, after 14 days' storage at 10° C. (FIG. 7)): well protected

αS1[91-100]: bioactive peptide with relaxing properties contained in the hydrolysate of milk proteins marketed by Ingredia as Lactium® (YLGYLEQLLR; UniProt P02662 106-115, looked up, fragment)
bioactive peptide consumed after fermentation [6]: more than 95%
bioactive peptide consumed after fermentation ([5]; 1.5 g/L Lactium® added before fermentation, up to pH 4.70): more than 95%
% αS1[91-100] peptide remaining after fermentation ([7]; strain 1-1519 (30 Dec. 1994)): 0.1%
% αS1[91-100] peptide remaining after fermentation ([7]; strain 1-1632 (24 Oct. 1995)): 0.2%
% αS1[91-100] peptide remaining after fermentation ([7]; strain 1-1968 (14 Jan. 1998)): 1.6%
% αS1[91-100] peptide remaining after fermentation ([7]; strain 1-2809 (19 Feb. 2002)): 0.4%
% αS1[91-100] peptide remaining after fermentation ([8]; strain 1-1477 (22 Sep. 1994)): 0.3%
% αS1[91-100] peptide remaining after fermentation ([8]; strain 1-1630 (24 Oct. 1995)): 0.3%
stability of the peptide in heat-treated fermented product [9]: possible to ensure the stability; also recorded: possible to preserve
content of encapsulated bioactive ingredient over time (fermented mass; encapsulated in palm oil emulsion, added to fermented white mass, storage at 4° C. (FIG. 6)): stability

Peptide 106-116 of bovine κ-casein: fragment 106-116 of bovine κ-casein (MAIPPKKNQDK; UniProt P02668 127-137, looked up, fragment)
platelet aggregation (platelet aggregation): Inhibits

Il-Pro-Pro [Il-Pro-Pro (IPP)]
blood pressure [1]: ingestion, reduced blood
blood pressure [2]: Normal rats: no effect
blood pressure [3]: reduced blood pressure

CC[C@H](C)[C@H](NC(=O)[C@@H]1CCCN1C(=O)[C@H](Cc1cnc[nH]1)NC(=O)[C@H](CCCCN)NC(=O)[C@@H]1CCCN1C(=O)[C@@H](N)CCCNC(=N)N)C(=O)N[C@@H](CCCCN)C(=O)N[C@@H](Cc1cnc[nH]1)C(=O)N[C@@H](CCC(N)=O)C(=O)NCC(=O)N[C@@H](CC(C)C)C(=O)N1CCC[C@H]1C(=O)N[C@@H](CCC(N)=O)C(=O)N[C@@H](CCC(=O)O)C(=O)N[C@H](C(=O)N[C@@H](CC(C)C)C(=O)N[C@@H](CC(N)=O)C(=O)N[C@@H](CCC(=O)O)C(=O)N[C@@H](CC(N)=O)C(=O)N[C@@H](CC(C)C)C(=O)N[C@@H](CC(C)C)C(=O)N[C@@H](CCCNC(=N)N)C(=O)N[C@@H](Cc1ccccc1)C(=O)O)C(C)C [isracidin] (H-RPKHPIKHQGLPQEVLNENLLRF-OH)
growth of pathogenic strains (pathogenic strains; Lahov 1996): Inhibited growth of pathogenic

Casein 63-68: fragment 63-68 of bovine β-casein (PGPIPN; UniProt P02666 78-83, looked up, fragment)
in vivo protection [10]: No in vivo protection

Casein 191-193: fragment 191-193 of bovine β-casein (LLY; UniProt P02666 206-208, looked up, fragment)
in vivo protection [10]: No in vivo protection

Lactoferricin
growth of pathogenic strains (pathogenic strains; Tomita 1994-Zucht 1995): Inhibited growth of pathogenic strains
